Laboratory results: patent publication US9546172B2, “Pyrazolo[3,4-d]pyrimidine and pyrazolo[2,3-d]pyrimidine compounds as kinase inhibitors” (Pharmacyclics LLC, priority 2011, dated 2017)

These molecules were tested against Lyn (Homo sapiens, UniProt P07948) (assay: Lyn kinase inhibition). Details: not given.
Sequence of Lyn (P07948 whole entry): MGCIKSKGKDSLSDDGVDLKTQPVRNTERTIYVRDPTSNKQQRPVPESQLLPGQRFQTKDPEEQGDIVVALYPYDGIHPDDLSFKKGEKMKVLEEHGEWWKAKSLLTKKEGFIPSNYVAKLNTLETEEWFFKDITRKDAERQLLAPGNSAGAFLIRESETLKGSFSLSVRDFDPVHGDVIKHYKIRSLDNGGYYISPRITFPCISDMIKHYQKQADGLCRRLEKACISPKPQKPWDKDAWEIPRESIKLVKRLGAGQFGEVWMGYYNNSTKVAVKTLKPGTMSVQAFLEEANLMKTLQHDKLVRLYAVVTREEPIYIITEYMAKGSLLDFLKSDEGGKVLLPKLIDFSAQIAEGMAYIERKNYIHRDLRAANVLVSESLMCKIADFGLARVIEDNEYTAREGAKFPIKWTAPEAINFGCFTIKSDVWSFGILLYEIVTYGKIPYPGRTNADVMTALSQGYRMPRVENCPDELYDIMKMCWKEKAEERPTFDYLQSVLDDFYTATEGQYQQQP
Type: biochemical
`C=CC(=O)Nc1ccc(-n2nc(-c3ccc(Cl)c(Cl)c3)c3c(N)ncnc32)cc1` [Example 20, N-(4-(4-amino-3-(3,4-dichlorophenyl)-1H-pyrazolo[3,4-d]pyrimidin-1-yl)phenyl)acrylamide] showed an IC50 of 100 to 1000 nM.

The molecules below were run against T1, Btk (Homo sapiens, UniProt Q06187) (assay: Btk in vitro inhibitory activity (one of Methods A, B, C)). Details: determined in one of three in vitro assays (Examples 125-127).
T1 construct: purified from insect cells as a full-length construct containing a N-terminal 6×-His tag; 6xHis (N); host or cells: insect cells (baculovirus Sf21 in Method B)
T1 sequence (Q06187 whole entry): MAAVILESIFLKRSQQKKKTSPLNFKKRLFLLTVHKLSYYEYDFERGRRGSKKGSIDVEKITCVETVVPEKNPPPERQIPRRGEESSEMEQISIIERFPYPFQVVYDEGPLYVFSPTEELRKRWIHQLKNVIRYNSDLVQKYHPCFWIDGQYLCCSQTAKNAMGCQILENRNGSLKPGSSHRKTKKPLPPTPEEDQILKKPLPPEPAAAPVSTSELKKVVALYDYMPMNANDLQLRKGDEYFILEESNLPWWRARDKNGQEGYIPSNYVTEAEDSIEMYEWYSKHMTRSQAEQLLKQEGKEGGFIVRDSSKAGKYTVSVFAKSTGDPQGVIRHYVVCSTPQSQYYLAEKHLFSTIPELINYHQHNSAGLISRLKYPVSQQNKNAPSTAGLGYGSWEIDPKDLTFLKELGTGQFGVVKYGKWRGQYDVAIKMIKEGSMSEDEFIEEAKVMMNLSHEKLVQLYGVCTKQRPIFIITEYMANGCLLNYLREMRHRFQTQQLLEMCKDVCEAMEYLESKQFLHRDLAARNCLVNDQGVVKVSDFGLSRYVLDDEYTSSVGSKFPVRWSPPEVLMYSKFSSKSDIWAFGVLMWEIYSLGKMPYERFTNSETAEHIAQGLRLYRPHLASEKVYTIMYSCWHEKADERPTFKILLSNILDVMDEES
Type: biochemical
Method: The Btk IC50s of compounds disclosed herein was determined in one of the three in vitro assays described in Examples 125-127.
(§1) Btk kinase activity was determined using a time-resolved fluorescence resonance energy transfer (TR-FRET) methodology. Measurements were performed in a reaction volume of 50 μL using 96-well assay plates. […] The reaction was quenched by the addition of 1.2 equivalents of EDTA (relative to divalent cation) in 25 μL of 1× Lance buffer (Perkin-Elmer). Streptavidin-APC (Perkin-Elmer) and Eu-labeled p-Tyr100 antibody (Perkin-Elmer) in 1× Lance buffer were added in a 25 μL volume to give final concentrations of 100 nM and 2.5 nM, respectively, and the mixture was allowed to incubate for one hour. The TR-FRET signal was measured on a multimode plate reader with an excitation wavelength (λEx) of 330 nm and detection wavelengths (λEm) of 615 and 665 nm. Activity was determined by the ratio of the fluorescence at 665 nm to that at 615 nm. For each compound, enzyme activity was measured at various concentrations of compound. Negative control reactions were performed in the absence of inhibitor in replicates of six, and two no-enzyme controls were used to determine baseline fluorescence levels Inhibition constants, Ki(app), were obtained using the program BatchKi (Kuzmic et al. (2000), Anal. Biochem. 286:45-50). IC50s were obtained according to the equation: IC50={Ki(app)/(1+[ATP]/Km^ATP)}+[E]total/2; For all kinases, [ATP]=Km^ATP, [Btk]total=0.5 nM and [Lck]total=6 nM.
Kinase activity is measured in vitro using electrophoretic mobility shift assay. The kinase reactions are assembled in a total volume of 25 μL in 384 well plates. […] The reaction is incubated for one hour and is quenched by the addition of 45 μL of termination buffer (100 mM HEPES, pH7.5, 0.01% Triton X-100, 30 mM EDTA). The terminated reactions are analyzed using 12 channel LabChip® 3000 microfluidic detection instrument (Caliper Life Sciences). The enzymatic phosphorylation of the peptide results in a change in net charge, enabling electrophoretic separation of product from substrate peptide. As substrate and product peptides are separated, two peaks of fluorescence are observed. Change in the relative fluorescence intensity of the substrate and product peaks is the parameter measured, reflecting enzyme activity. In the presence of an inhibitor, the ratio between product and substrate is altered: the signal of the product decreases, while the signal of the substrate increases.
Activity in each sample is determined as the product to sum ratio (PSR): P/(S+P), where P is the peak height of the product peptide and S is the peak height of the substrate peptide. For each compound, enzyme activity is measured at various concentrations (12 concentrations of compound spaced by 3× dilution intervals). Negative control samples (0%-inhibition in the absence of inhibitor) and positive control samples (100%-inhibition, in the presence of 20 mM EDTA) are assembled in replicates of four and are used to calculate %-inhibition values for each inhibitor at each concentration. Percent inhibition (Pinh) is determined using following equation: Pinh=(PSR0%−PSRinh)/(PSR0%−PSR100%)*100, where PSRinh is the product sum ratio in the presence of inhibitor, PSR0% is the average product sum ration in the absence of inhibitor and PSR100% is the average product sum ratio in 100%-inhibition control samples;
The IC50 values of inhibitors are determined by 4 parameter sigmoidal dose-response model fitting of the inhibition curves (Pinh versus inhibitor concentration) using XLfit 4 software.
Human Btk kinase (Genbank accession # NP_000052) was purified from insect cells as a full-length construct containing a N-terminal 6×-His tag. Btk kinase activity was determined using a radiometric filter binding assay. Measurements are performed in a low reaction volume 384-well assay plates. […]
Work on `C=CC(=O)Nc1ccc(-n2nc(-c3ccc(Cl)c(Cl)c3)c3c(N)ncnc32)cc1` [Example 20, N-(4-(4-amino-3-(3,4-dichlorophenyl)-1H-pyrazolo[3,4-d]pyrimidin-1-yl)phenyl)acrylamide] yielded an IC50 of less than 100 nM. For `COc1cc(-c2nn(-c3cccc(N(C)C(=O)/C=C/CN(C)C)n3)c3ncnc(N)c23)ccc1C` [Example 30], the IC50 was less than 100 nM. Work on `CN(C)C/C=C/C(=O)N(C)c1cccc(-n2nc(-c3ccc(Cl)cc3)c3c(N)ncnc32)n1` [Example 31] yielded an IC50 of less than 100 nM. For `CN(C(=O)/C=C/CN(C)C1CC1)c1ccc(-n2nc(-c3ccc(Cl)cc3)c3c(N)ncnc32)cc1` [Example 32], the IC50 was less than 100 nM. Work on `CCN(C/C=C/C(=O)N(C)c1ccc(-n2nc(-c3ccc(Cl)cc3)c3c(N)ncnc32)cc1)C1CC1` [Example 33] yielded an IC50 of less than 100 nM. For `CN(C(=O)/C=C/CN(C)C1CCC1)c1ccc(-n2nc(-c3ccc(Cl)cc3)c3c(N)ncnc32)cc1` [Example 34], the IC50 was less than 100 nM. For `COc1cc(-c2nn(-c3cccc(NC(=O)/C=C/CN(C)C)c3)c3ncnc(N)c23)ccc1C` [Example 35], the IC50 was less than 100 nM. With `C=CC(=O)N1CC[C@@H](n2nc(-c3ccc(Cl)cc3)c3c(N)ncnc32)C1` [Example 36] the IC50 was less than 100 nM. With `C=CC(=O)N(C)c1cccc(-n2nc(-c3ccc(C)c(OC)c3)c3c(N)ncnc32)c1` [Example 37] the IC50 was less than 100 nM. `COc1cc(-c2nn(-c3cccc(N(C)C(=O)/C=C/CN(C)C)c3)c3ncnc(N)c23)ccc1C` [Example 38] gave an IC50 of less than 100 nM. For `COc1cc(-c2nn(-c3ccc(N(C)C(=O)/C=C/CN(C)C4CCC4)cc3)c3ncnc(N)c23)ccc1C` [Example 40], the IC50 was less than 100 nM. Molecule `COCCOc1ccc(-n2nc(-c3ccc(C)c(OC)c3)c3c(N)ncnc32)cc1NC(=O)/C=C/CN(C)C` [Example 41] has an IC50 of less than 100 nM. `COc1cc(-c2nn(-c3cccc(N(C)C(=O)/C=C/CN4CCOCC4)c3)c3ncnc(N)c23)ccc1C` [Example 44] showed an IC50 of less than 100 nM. Work on `COc1cc(-c2nn([C@@H]3CCCN(C(=O)/C=C/CN(C)C)C3)c3ncnc(N)c23)ccc1C` [Example 45] yielded an IC50 of less than 100 nM. Molecule `CN(C)C/C=C/C(=O)N1CCC[C@@H](n2nc(-c3ccc(Cl)cc3)c3c(N)ncnc32)C1` [Example 46] has an IC50 of less than 100 nM. Work on `CN(C)C/C=C/C(=O)N1CCC(n2nc(-c3ccc(Cl)cc3)c3c(N)ncnc32)CC1` [Example 47] yielded an IC50 of less than 100 nM. Work on `COc1cc(-c2nn(CC3CCN(C(=O)/C=C/CN(C)C)CC3)c3ncnc(N)c23)ccc1C` [Example 48] yielded an IC50 of less than 100 nM. With `COc1cc(-c2nn(C[C@@H]3CCCN3C(=O)/C=C/CN(C)C)c3ncnc(N)c23)ccc1C` [Example 49] the IC50 was less than 100 nM. In the case of `COc1cc(-c2nn(C[C@H]3CCCN3C(=O)/C=C/CN(C)C)c3ncnc(N)c23)ccc1C` [Example 50], the IC50 is reported as less than 100 nM. Work on `CN(C)C/C=C/C(=O)N(C)c1cc(-n2nc(-c3ccc(Cl)cc3)c3c(N)ncnc32)ccc1F` [Example 51] yielded an IC50 of less than 100 nM. For `COc1cc(-c2nn(-c3ccc(N(C)C(=O)/C=C/CN(C)C)c(Cl)c3)c3ncnc(N)c23)ccc1C` [Example 52], the IC50 was less than 100 nM. `COc1cc(-c2nn(C3CCN(C(=O)/C=C/CN(C)C)CC3)c3ncnc(N)c23)ccc1C` [Example 53] showed an IC50 of less than 100 nM. `COc1cc(-c2nn([C@@H]3CCN(C(=O)/C=C/CN(C)C)C3)c3ncnc(N)c23)c(F)cc1C` [Example 54] showed an IC50 of less than 100 nM. With `COc1cc(-c2nn(-c3cccc(N(C)C(=O)/C=C/CN(C)C)c3)c3ncnc(N)c23)c(F)cc1C` [Example 55] the IC50 was less than 100 nM. For `COc1cc(-c2nn(C3CCN(C(=O)/C=C/CN(C)C4CC4)CC3)c3ncnc(N)c23)ccc1C` [Example 57], the IC50 was less than 100 nM. `COc1cc(-c2nn([C@H]3CC[C@@H](NC(=O)/C=C/CN(C)C4CC4)CC3)c3ncnc(N)c23)ccc1C` [Example 59] showed an IC50 of less than 100 nM. `COc1cc(-c2nn([C@@H]3CCN(C(=O)/C=C/CN(C)C4CC4)C3)c3ncnc(N)c23)ccc1C` [Example 60] was tested, and the IC50 was less than 100 nM. Molecule `CN(C/C=C/C(=O)N1CC[C@@H](n2nc(-c3ccc(Cl)cc3)c3c(N)ncnc32)C1)C1CC1` [Example 61] has an IC50 of less than 100 nM. Work on `COc1cc(-c2nn(-c3ccc(N(C)C(=O)/C=C/CN(C)C)c(F)c3)c3ncnc(N)c23)ccc1C` [Example 62] yielded an IC50 of less than 100 nM. In the case of `COc1cc(-c2nn(-c3ccc(F)c(N(C)C(=O)/C=C/CN(C)C)c3)c3ncnc(N)c23)ccc1C` [Example 63], the IC50 is reported as less than 100 nM. Work on `COc1cc(-c2nn(C3CN(C(=O)/C=C/CN(C)C)C3)c3ncnc(N)c23)ccc1C` [Example 64] yielded an IC50 of less than 100 nM. In the case of `CN(C)C/C=C/C(=O)N1CC(n2nc(-c3ccc(Cl)cc3)c3c(N)ncnc32)C1` [Example 65], the IC50 is reported as less than 100 nM. With `CN(C/C=C/C(=O)N1CC(n2nc(-c3ccc(Cl)cc3)c3c(N)ncnc32)C1)C1CC1` [Example 66] the IC50 was less than 100 nM. `COc1cc(-c2nn(C3CN(C(=O)/C=C/CN(C)C4CC4)C3)c3ncnc(N)c23)ccc1C` [Example 67] gave an IC50 of less than 100 nM. Molecule `COc1cc(-c2nn(-c3ccc(N(C)C(=O)/C=C/CN(C)C4CC4)c(F)c3)c3ncnc(N)c23)ccc1C` [Example 68] has an IC50 of less than 100 nM. For `CN(C(=O)/C=C/CN(C)C1CC1)c1cc(-n2nc(-c3ccc(Cl)cc3)c3c(N)ncnc32)ccc1F` [Example 69], the IC50 was less than 100 nM. `COCCOc1ccc(-n2nc(-c3ccc(C)c(OC)c3)c3c(N)ncnc32)cc1N(C)C(=O)/C=C/CN(C)C` [Example 70] showed an IC50 of less than 100 nM. `COc1cc(-c2nn(C[C@H]3CCN(C(=O)/C=C/CN(C)C)C3)c3ncnc(N)c23)ccc1C` [Example 72] showed an IC50 of less than 100 nM. Work on `COc1cc(-c2nn([C@H]3CC[C@@H](N(C)C(=O)/C=C/CN(C)C)CC3)c3ncnc(N)c23)ccc1C` [Example 73] yielded an IC50 of less than 100 nM. For `COc1cc(-c2nn(-c3ccc(F)c(N(C)C(=O)/C=C/CN(C)C4CC4)c3)c3ncnc(N)c23)ccc1C` [Example 76], the IC50 was less than 100 nM. Molecule `COc1cc(-c2nn(-c3ccc(OCC(C)(C)O)c(N(C)C(=O)/C=C/CN(C)C)c3)c3ncnc(N)c23)ccc1C` [Example 77] has an IC50 of less than 100 nM. `C=CC(=O)N1CCC(n2nc(-c3ccc(C)c(OC)c3)c3c(N)ncnc32)CC1` [Example 78] was tested, and the IC50 was less than 100 nM. In the case of `C=CC(=O)N1CC(n2nc(-c3ccc(C)c(OC)c3)c3c(N)ncnc32)C1` [Example 79], the IC50 is reported as less than 100 nM. `C=CC(=O)N1CCC(n2nc(-c3ccc(Cl)cc3)c3c(N)ncnc32)CC1` [Example 80] showed an IC50 of less than 100 nM. `C=CC(=O)N1CC(n2nc(-c3ccc(Cl)cc3)c3c(N)ncnc32)C1` [Example 81] was tested, and the IC50 was less than 100 nM. With `COc1cc(-c2nn(-c3ccc(N(C)S(=O)(=O)/C=C/CN(C)C)cc3)c3ncnc(N)c23)ccc1C` [Example 82] the IC50 was less than 100 nM. For `C=CC(=O)N1CC[C@@H](n2nc(-c3ccc(C)c(OC)c3)c3c(N)ncnc32)C1` [Example 83], the IC50 was less than 100 nM. Work on `C=CC(=O)N1CCC[C@@H](n2nc(-c3ccc(C)c(OC)c3)c3c(N)ncnc32)C1` [Example 84] yielded an IC50 of less than 100 nM. Work on `C=CC(=O)N1CCC[C@@H](n2nc(-c3ccc(Cl)cc3)c3c(N)ncnc32)C1` [Example 85] yielded an IC50 of less than 100 nM. `C=CC(=O)N1CC[C@@H](n2nc(-c3ccc(F)c(OC)c3)c3c(N)ncnc32)C1` [Example 85b] showed an IC50 of less than 100 nM. For `C=CC(=O)N1CC[C@@H](n2nc(-c3ccc(F)cc3)c3c(N)ncnc32)C1` [Example 85c], the IC50 was less than 100 nM. Work on `C=CC(=O)N1CC[C@@H](n2nc(-c3ccc(C)cc3)c3c(N)ncnc32)C1` [Example 85d] yielded an IC50 of less than 100 nM.

These molecules were tested against C-src (Homo sapiens, UniProt P12931) (assay: C-src kinase inhibition). Details: not given.
Sequence of C-src (P12931 whole entry): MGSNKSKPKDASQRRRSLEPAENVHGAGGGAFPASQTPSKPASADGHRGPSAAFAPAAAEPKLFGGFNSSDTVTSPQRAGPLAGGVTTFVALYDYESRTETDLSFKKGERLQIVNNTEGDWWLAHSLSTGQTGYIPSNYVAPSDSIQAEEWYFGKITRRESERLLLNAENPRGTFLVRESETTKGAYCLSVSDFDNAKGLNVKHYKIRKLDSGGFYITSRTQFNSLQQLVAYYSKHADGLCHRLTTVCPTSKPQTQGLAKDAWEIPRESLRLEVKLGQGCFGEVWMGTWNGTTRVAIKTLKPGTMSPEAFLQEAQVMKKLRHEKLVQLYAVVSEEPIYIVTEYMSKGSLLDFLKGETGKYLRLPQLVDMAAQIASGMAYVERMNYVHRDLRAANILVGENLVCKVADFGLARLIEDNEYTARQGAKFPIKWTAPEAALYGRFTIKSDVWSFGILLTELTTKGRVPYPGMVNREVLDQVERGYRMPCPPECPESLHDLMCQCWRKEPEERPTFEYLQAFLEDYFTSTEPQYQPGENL
Type: biochemical
Method: as §1
For `C=CC(=O)Nc1ccc(-n2nc(-c3ccc(Cl)c(Cl)c3)c3c(N)ncnc32)cc1` [Example 20, N-(4-(4-amino-3-(3,4-dichlorophenyl)-1H-pyrazolo[3,4-d]pyrimidin-1-yl)phenyl)acrylamide], the IC50 was less than 100 nM.

The molecules below were run against Lck (Homo sapiens, UniProt P06239) (assay: Lck kinase inhibition). Details: not given.
Sequence of Lck (P06239 whole entry): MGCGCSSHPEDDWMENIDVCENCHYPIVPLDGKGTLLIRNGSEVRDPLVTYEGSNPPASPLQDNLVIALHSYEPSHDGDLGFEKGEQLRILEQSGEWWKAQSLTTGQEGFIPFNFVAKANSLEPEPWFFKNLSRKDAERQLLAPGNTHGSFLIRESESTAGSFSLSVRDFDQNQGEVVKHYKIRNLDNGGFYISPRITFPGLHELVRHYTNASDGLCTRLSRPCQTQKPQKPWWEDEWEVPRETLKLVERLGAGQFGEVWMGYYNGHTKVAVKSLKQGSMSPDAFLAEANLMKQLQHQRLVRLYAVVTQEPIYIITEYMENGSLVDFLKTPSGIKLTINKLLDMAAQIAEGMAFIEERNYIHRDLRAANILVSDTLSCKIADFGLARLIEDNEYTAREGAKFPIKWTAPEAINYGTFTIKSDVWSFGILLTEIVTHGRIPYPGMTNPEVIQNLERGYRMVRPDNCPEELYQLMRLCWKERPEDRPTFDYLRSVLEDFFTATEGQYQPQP
Type: biochemical
Method: as §1
For `C=CC(=O)Nc1ccc(-n2nc(-c3ccc(Cl)c(Cl)c3)c3c(N)ncnc32)cc1` [Example 20, N-(4-(4-amino-3-(3,4-dichlorophenyl)-1H-pyrazolo[3,4-d]pyrimidin-1-yl)phenyl)acrylamide], the IC50 was 100 to 1000 nM.
